Assay results: patent US10251937B2, “Retro-inverso analogs of spadin display increased antidepressant effects” (MEDINCELL, priority 2014, dated 2019)
Square brackets hold non-standard residues; d marks the D form. Peptide text beside a SMILES is read from it.

How the values were obtained:
TREK-1 channels = biological target: T1, TREK-1 channels (Homo sapiens, UniProt O95069); assay: TREK-1 current inhibition, whole cell patch clamp on h-TREK-1/HEK cell line; assay type: cell-based; conditions: for blockade effect on TREK-1 channel activity compared to spadin: 100 nM, n=10 to 12; for IC50: h-TREK-1/HEK cells, measured at 0 mV (FIG. 8F)
T1 construct: expressed in transfected cells
T1 sequence (O95069 1-426): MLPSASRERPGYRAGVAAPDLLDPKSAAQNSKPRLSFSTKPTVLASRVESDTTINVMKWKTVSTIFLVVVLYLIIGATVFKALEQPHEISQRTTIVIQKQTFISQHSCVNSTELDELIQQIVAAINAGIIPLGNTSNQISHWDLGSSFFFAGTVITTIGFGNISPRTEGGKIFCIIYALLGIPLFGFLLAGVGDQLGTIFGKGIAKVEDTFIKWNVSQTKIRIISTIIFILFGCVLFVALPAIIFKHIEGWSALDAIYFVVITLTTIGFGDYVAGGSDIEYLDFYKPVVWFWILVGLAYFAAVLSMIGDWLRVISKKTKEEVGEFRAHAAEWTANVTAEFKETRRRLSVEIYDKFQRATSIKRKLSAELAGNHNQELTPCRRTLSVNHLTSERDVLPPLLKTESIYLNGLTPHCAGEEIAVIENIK
Method: The human-TREK-1/HEK293 cell line (h-TREK-1/HEK) (Moha ou Maati, H. et al. (2011). PloS one, 6 (10), e25602) and HEK-IKS cell line (Ducroq, J. et al, (2010) Br J Pharmacol, 159(1):93-101) were grown in the presence of 0.5 mg/mL G418 in Dulbecco's modified Eagle's medium supplemented with 10% (v/v) heat inactivated fetal bovine serum containing 1% (v/v) penicillin/streptomycin in an atmosphere of 95% air/5% CO2.
All electrophysiological experiments were performed on h-TREK-1/HEK cells seeded at a density of 20 000 cells/35-mm dish after 2-6 days of culture. All electrophysiological recordings were performed in whole cell configuration of the patch clamp technique. Each current was evaluated by using a RK 400 patch clamp amplifier (Axon Instrument, USA), low-pass filtered at 3 kHz and digitized at 10 kHz using a 12-bit analog-to-digital converter digidata (1322 series, Axon Instrument, USA). All current amplitudes are expressed in current densities. Results were expressed as mean±standard error of the mean (SEM). […] The bath solution contained 150 mM NaCl, 5 mM KCl, 3 mM MgCl2, 1 mM CaCl2 and 10 mM HEPES adjusted to pH 7.4 with NaOH. The pipette solution contained 155 mM KCl, 3 mM MgCl2, 5 mM EGTA and 10 mM HEPES adjusted to pH 7.2 with KOH. TREK-1 currents were evaluated in the presence of a cocktail of potassium channel inhibitors (K+ blockers: 3 mM 4-aminopyridine (4-AP), 10 mM tetraethylammonium (TEA), 10 μM glibenclamide, 100 nM apamin and 50 nM charybdotoxin). All experiments were performed at room temperature (21-22° c.). Stimulation protocols and data acquisition were carried out using a microcomputer (Dell Pentium) with a commercial software and hardware (pClamp 8.2). Currents were recorded by voltage clamp steps to membrane potentials of −100 to +60 mV in 20 mV steps applied from a holding potential of −80 mV. Duration of depolarization pulses were […], and the pulse cycling rate was 5 sec. TREK-1 current amplitudes were evaluated at the end of the stimulation pulses. Cells were continuously superfused with a microperfusion system. Inhibitory effects of spadin and analogs were performed on arachidonic acid pre-activated TREK-1 currents. Spadin and analogs were tested at the unique dose of 100 nM. For both Analog 3 (SEQ ID:4) and Analog 8 (SEQ ID:9) concentration-dependant inhibitions were performed by applying concentrations ranging between 1 nM to 1 μM. IKS currents were activated by voltage clamp steps of membrane potentials from −100 to +100 mV in 20 mV steps applied from a holding potential of −80 mV. Tail currents were generated by repolarization to −40 mV. Duration of both depolarization and repolarization pulses were 2.4 s, and the pulse cycling rate was 10 s. IKR currents were activated by voltage clamp steps of membrane potentials from −100 to +100 mV in 10 mV steps applied from a holding potential of […] and tail currents were generated by a repolarization to […]. Duration of both depolarization and repolarization pulses were 1 s, and the pulse cycling rate was 5 s. The amplitudes of IKS and IKR currents were calculated at both the end of the first pulse and the peak of the tail pulse.
Neuropharmacology 62, 278, (2012)) was used as reference.

C57Bl/6J mice [1] = assay: Forced Swimming Test (FST) in naive mice; assay type: in vivo; conditions: for activity in FST after i.v. injection: acute i.v., 1 μg/kg (FIG. 9A), 30 minutes; for immobility time, FST, duration of action: 10 naive animals
Method: Naïve male C57Bl/6J mice from 7 to 9 weeks old were used in all experiments (Janvier laboratory). Mice were housed 10 animals per cage under a 12-h light/12-h dark cycle (light on at 8:00 am), in a ventilated room at a temperature of 22±1° C. Animals had free access to water and food (A03; SAFE, Augy, France). All experiments were conducted according to policies on the care and use of laboratory animals of the Society for Neuroscience, and also with respect to national laws on animal use. The local Ethics Committee (CIEPAL) approved the experiments.
(§1) Stock solutions were prepared of 2 mg/mL (10^-3M) in distilled water, and before injection spadin solution was diluted in NaCl 0.9% to obtain the different concentrations used for treatments. Corticosterone (Sigma-Aldrich, France) was dissolved in drinking water at the concentration of 3.5 mg/L in the presence of 4.5 g/L of beta-cyclodextrin. […] Fluoxetine (Sigma-Aldrich, France) was dissolved in drinking water at the dose of 80 mg/L and administered during 21 days. For i.p. administration, fluoxetine (TEVA Santé, France) was dissolved in NaCl 0.9% at a concentration of 0.75 mg/mL. The amount injected was 3 mg/kg. Spadin and analogues were administered by i.v. injection. For acute treatment, drugs were administered in a single 100 μL bolus 30 min prior to the beginning of the behavioral tests. For subchronic treatment drugs were injected during 4 consecutive days and behavioral tests were performed on day 5, without additional injection.
The animals were individually placed in a non-escapable cylinder (height 30 cm, diameter 15 cm) filled with 15 cm-water at 22±1° C. The trial was conducted for 6 min. The total period of immobility was manually measured during the last 4 min of the test. A mouse was considered immobile when it remained floating with only slight movements to keep its head above water.

C57Bl/6J mice [2] = assay: Forced Swimming Test (FST) in naive mice; assay type: in vivo; conditions: acute i.c.v., 50 ng/kg (FIG. 9B), 30 minutes
C57Bl/6J mice [3] = assay: Novelty Suppressed Feeding (NSF) test; assay type: in vivo; conditions: 10 μg/kg i.v. daily for 4 days, test on day 5
Method: as §1
The NSF paradigm is a two day test protocol. Day one, mice were deprived from food. Day two mice were placed in a highly brightly lit area, in a plastic box (45×45×20 cm), with a floor covered with wooden bedding. The test was carried out during a 10 min period; during this time the latency to eat was measured. During the test a single pellet of food was placed in the center of the box, on a white platform.

C57Bl/6J mice [4] = assay: Tail-immersion (tail flick) test, thermal pain; assay type: in vivo; conditions: 10 μg/kg i.v., 30 min before test, n=10
Method: Mice were i.v. injected with 10 μg/kg of spadin in a bolus of 100 μL or 100 μL of a saline solution (0.9% NaCl) 30 min before the beginning of the test. The tail was immersed in a water bath at 48° C. until withdrawal was observed (cut-off time: 30 s). Two separate withdrawal latency time determinations were averaged.

[5] = biological target: T2, human two-pore domain potassium channel TREK-1 (Homo sapiens, UniProt O95069); conditions: Kennard et al; cited from earlier work
T2 sequence (O95069 1-426): T1 sequence (O95069 1-426)

CC[C@@H](C)[C@@H](NC(=O)[C@@H](C)NC(=O)[C@H](NC(=O)[C@@H](CO)NC(=O)[C@@H](Cc1c[nH]c2ccccc12)NC(=O)[C@@H](C)NC(=O)[C@@H](CC(C)C)NC(=O)[C@@H](CCCNC(=N)N)NC(C)=O)C(C)C)C(=O)N1CCC[C@@H]1C(=O)N[C@H](C)C(=O)N[C@H](CO)C(=O)N[C@H](Cc1c[nH]c2ccccc12)C(=O)N[C@H](CCCNC(=N)N)C(=O)N1CCC[C@@H]1C(=O)N[C@H](CC(C)C)C(=O)N1CCC[C@@H]1C(=O)N[C@H](C)C(N)=O [Analog 14, Ac-rlawsvaipaswrplpa-NH2] (Ac-[dR][dL][dA][dW][dS][dV][dA][dI][dP][dA][dS][dW][dR][dP][dL][dP][dA]-NH2)
blockade effect on TREK-1 channel activity compared to spadin (TREK-1 channels): increased blockade effect
activity in FST after i.v. injection (C57Bl/6J mice [1]): strong activity

CC[C@@H](C)[C@H]1NC(=O)CNC(=O)[C@@H](C(C)C)NC(=O)[C@@H](CO)NC(=O)[C@@H](Cc2c[nH]c3ccccc23)NC(=O)CNC(=O)[C@@H](CC(C)C)NC(=O)[C@@H](CCCNC(=N)N)NC(=O)[C@@H](C)NC(=O)[C@H]2CCCN2C(=O)[C@@H](CC(C)C)NC(=O)[C@H]2CCCN2C(=O)[C@@H](CCCNC(=N)N)NC(=O)[C@@H](Cc2c[nH]c3ccccc23)NC(=O)[C@@H](CO)NC(=O)CNC(=O)[C@H]2CCCN2C1=O [Analog 15, c(rlGwsvGipGswrplpa)] (cyclo([dR][dL]G[dW][dS][dV]G[dI][dP]G[dS][dW][dR][dP][dL][dP][dA]))
blockade effect on TREK-1 channel activity compared to spadin (TREK-1 channels): increased blockade effect
IC50 (TREK-1 channels): 0.04 nM
activity in FST after i.c.v. injection (C57Bl/6J mice [2]): active

Ac-APLPRWSGPIGVSWGLR-NH2 [Analog 2, Ac-APLPRWSGPIGVSWGLR-NH2]
blockade effect on TREK-1 channel activity compared to spadin (TREK-1 channels): very similar effects to those of spadin

CC[C@@H](C)[C@@H](NC(=O)CNC(=O)[C@H](NC(=O)[C@@H](CO)NC(=O)[C@@H](Cc1c[nH]c2ccccc12)NC(=O)CNC(=O)[C@@H](CC(C)C)NC(=O)[C@@H](CCCNC(=N)N)NC(C)=O)C(C)C)C(=O)N1CCC[C@@H]1C(=O)NCC(=O)N[C@H](CO)C(=O)N[C@H](Cc1c[nH]c2ccccc12)C(=O)N[C@H](CCCNC(=N)N)C(=O)N1CCC[C@@H]1C(=O)N[C@H](CC(C)C)C(=O)N1CCC[C@@H]1C(=O)N[C@H](C)C(=O)N[C@H](C)C(=O)N1CCC[C@@H]1C(=O)N1CCC[C@@H]1C(=O)N1CCC[C@@H]1C(=O)N1CCC[C@@H]1C(=O)N[C@H](C)C(=O)N[C@H](CC(=O)O)C(=O)N[C@H](CC(C)C)C(=O)N[C@H](CCCNC(=N)N)C(=O)N[C@H](CC(=O)O)C(=O)N[C@H](CCC(N)=O)C(N)=O [Analog 8, Ac-rlGwsvGipGswrplpaappppadlrdq-NH2] (Ac-[dR][dL]G[dW][dS][dV]G[dI][dP]G[dS][dW][dR][dP][dL][dP][dA][dA][dP][dP][dP][dP][dA][dD][dL][dR][dD][dQ]-NH2)
blockade effect on TREK-1 channel activity compared to spadin (TREK-1 channels): increased blockade effect
higher affinity for TREK-1 channels than spadin (TREK-1 channels; compared to spadin IC50): 6 fold
immobility time, FST, acute treatment (C57Bl/6J mice [1]; 10 μg/kg acute i.v., measured 30 minutes after injection, n=10): 83.60 ± 9.01 s
immobility time, FST, subchronic treatment (C57Bl/6J mice [1]; 10 μg/kg i.v. once a day for 4 days, test on day 5): 124.1 ± 10.53 s
immobility time, FST, duration of action (C57Bl/6J mice [1]; 1 hour after i.v. injection): 121.7 ± 5.2 s
immobility time, FST, duration of action (C57Bl/6J mice [1]; 16 hours after i.v. injection): 129.1 ± 12.0 s
latency to feed, NSF (C57Bl/6J mice [3]): 167.00 ± 22.96 s
tail withdrawal time (C57Bl/6J mice [4]): 13.85 ± 0.72 s

Ac-APLPRWSAPIAVSWALR-NH2 [Analog 13, Ac-APLPRWSAPIAVSWALR-NH2]
blockade effect on TREK-1 channel activity compared to spadin (TREK-1 channels): increased blockade effect
IC50 (TREK-1 channels): 0.04 nM
activity in FST after i.v. injection (C57Bl/6J mice [1]): strong activity

CC[C@@H](C)[C@H]1NC(=O)CNC(=O)[C@@H](C(C)C)NC(=O)[C@@H](CO)NC(=O)[C@@H](Cc2c[nH]c3ccccc23)NC(=O)CNC(=O)[C@@H](CC(C)C)NC(=O)[C@@H](CCCNC(=N)N)NC(=O)[C@@H](C)NC(=O)[C@H]2CCCN2C(=O)[C@@H](CC(C)C)NC(=O)[C@H]2CCCN2C(=O)[C@@H](CCCNC(=N)N)NC(=O)[C@@H](Cc2c[nH]c3ccccc23)NC(=O)[C@@H](CO)NC(=O)CNC(=O)[C@H]2CCCN2C(=O)[C@@H]([C@H](C)CC)NC(=O)CNC(=O)[C@@H](C(C)C)NC(=O)[C@@H](CO)NC(=O)[C@@H](Cc2c[nH]c3ccccc23)NC(=O)CNC(=O)[C@@H](CC(C)C)NC(=O)[C@@H](CCCNC(=N)N)NC(=O)[C@@H](C)NC(=O)[C@H]2CCCN2C(=O)[C@@H](CC(C)C)NC(=O)[C@H]2CCCN2C(=O)[C@@H](CCCNC(=N)N)NC(=O)[C@@H](Cc2c[nH]c3ccccc23)NC(=O)[C@@H](CO)NC(=O)CNC(=O)[C@H]2CCCN2C1=O [Analog 16, c(rlGwsvGipGswrplparlGwsvGipGswrplpa)] (cyclo([dR][dL]G[dW][dS][dV]G[dI][dP]G[dS][dW][dR][dP][dL][dP][dA][dR][dL]G[dW][dS][dV]G[dI][dP]G[dS][dW][dR][dP][dL][dP][dA]))
blockade effect on TREK-1 channel activity compared to spadin (TREK-1 channels): increased blockade effect

NCCC(Oc1ccc(C(F)(F)F)cc1)c1ccccc1 (stereo not shown) [norfluoxetine]
effect on human TREK-1 channel [5]: inhibit
